The record followed here is patent publication US8110570B2, “Modulators of acetyl-coenzyme A carboxylase and methods of use thereof” (Cropsolution, Inc., priority 2008, dated 2012).

One experiment deals with T1, hACC2 (Homo sapiens, UniProt O00763).
T1 construct: delete amino acids 1-148 and add Met-Gly in front of Lys149 in the final product; His tag (C); made in house; host or cells: baculovirus, Sf9 insect cells
The experiment is described as follows: [14C]bicarbonate incorporation assay, overall ACC activity. The class given is biochemical. To be noted: recombinant hACC2, overall ACC activity. As for the experimental part:
(§1) In vitro IC50 values of human ACC were determined using recombinant enzyme produced by standard procedures. For example, full-length cDNAs for both the human isoforms (hACC1 and hACC2) were each cloned and expressed as a recombinant protein using a baculovirus system. Double stranded cDNA from human fetal liver (Quick-Clone cDNA, cat. #7171-1) was purchased from BD/Clontech (Mt. View, Calif.). PCR primers were designed for full-length hACC1 and hACC2 using GenBank submissions AY237919 and AJ575592, respectively. The Advantage GC 2 PCR kit (BD/Clontech) was used for amplification. The PCR products (about 7 Kb) were TOPO-cloned into the pCR4Blunt vector (Invitrogen, Carlsbad, Calif.), and 6 clones of each gene were isolated. […] Full length versions of the two cDNAs corresponding to their respective Genbank sequences were assembled in pBluescript SK+ (Stratagene, La Jolla, Calif.) by combining error-free fragments from the PCR clones. The resulting hACC1 clone, designated pCS35, has six silent nucleotide differences compared to Genbank accession AY237919. The final hACC2 clone, designated pCS36, has ten silent nucleotide differences compared to Genbank accession AJ575592. Primers were designed to PCR amplify the cDNAs along with the in-frame 3′-his tag sequences from the pET vector and TOPO-cloned the resulting products into the Gateway® entry vector pENTR/D-TOPO. The ACC2 primers were designed to delete amino acids 1-148 and add Met-Gly in front of Lys149 in the final product. The resulting entry clones were transferred to BaculoDirect™ linear DNA (Invitrogen corp.) using the Gateway® LR recombination reaction. The recombinant baculovirus DNA was transfected into insect cells and viral amplification was performed according to the manufacturer's protocols. For protein expression sf9 cells were infected with a P3 viral stock in the presence of 50 uM biotin. The cells were harvested after 48-72 hr, lysed by sonication, and the resulting extract was clarified by centrifugation. ACC in the crude extract was concentrated by ammonium sulfate precipitation (40% w/v) and purified by Ni^2+-NTA chromatography (Novagen) followed by anion exchange chromatography on a UNO-Q column (BioRad).
(§2) Overall ACC activity in the hACC preparations is measured by following incorporation of [^14C]bicarbonate into […] essentially as described (Thumpy and Wakil, J Biol Chem 260, 6318-6323 (1985). Briefly, the reaction mixture (50 μL) contains: 50 mM Hepes (pH7.4), 20 mM K-Citrate, 20 mM Mg-Acetate 1.5 mM MgSO4, 2 mM DTT, 2 mM acetyl-CoA, 12 mM NaHCO3, 0.2 mM NaH^14CO3 (˜50 mCi/mmol), 0.01% (v/v) Triton X-100, 0.75 mg/mL BSA, 1% (v/v) DMSO (with or without inhibitor), and 0.3 μg (hACC1) or 0.15 μg (hACC2) enzyme. Reactions are initiated by the addition of ATP to a final concentration 2 mM. After 10 minutes at 37° C., the reaction is stopped by the addition of 2N HCl (50 μL). The samples are evaporated in a hood overnight, resuspended in H2O (200 μL), and incorporated label is quantified by scintillation counting in scintillation cocktail (3 mL). Inhibition data are fit to dose-response curves and IC50 values are reported (i.e. the concentration of inhibitor that gives 50% inhibition).

The target of a further experiment is T2, hACC1 (Homo sapiens, UniProt Q13085).
T2 construct: PCR primers were designed for full-length hACC1 and hACC2 using GenBank submissions AY237919 and AJ575592, respectively; His tag (C); made in house; host or cells: baculovirus, Sf9 insect cells
The description is as above. Format: biochemical. The conditions noted are these: recombinant hACC1, overall ACC activity. As for the experimental part: as §1, §2

Experiment [1] has as its target uACC (Ustilago maydis ACC) (Ustilago maydis, UniProt A0A0D1DYD5). The description is as above. Format: biochemical.
Experiment [2] deals with A2780 human ovary cancer cells. As to the kind of experiment: MTT Cell Proliferation Assay. Format: cell-based. To be noted: 72 hours, read-out: Percent of Control A2780. As for the experimental part: (§3) The anti-proliferative activity of test compounds against human tumor cell lines is evaluated in vitro using the ATCC's MTT Cell Proliferation Assay (Catalog No. 30-100K). Cell lines are grown using media, serum, and culture conditions recommended by the ATCC. Stock cultures are allowed to grow to 70-80% confluence. Cells are seeded into 96-well culture plates at a predetermined density on day 0 in complete medium (0.1 mL). Plates are placed in a humidified incubator at 37° C. with 5% CO2 and 95% HEPA filtered room air for 24 hours. At this point compound (0.1 mL of 2× stock (in media)) is added to the indicated wells and the plates are returned to the incubator for 72 hours. Cell proliferation is measured by addition of MTT reagent to each well and incubated for an additional 4 hours, followed by addition of cell lysis/MTT solublization reagent and incubating overnight. […] Results are expressed as percent of control cells versus compound concentration. Compounds of the present invention, and salts thereof, were evaluated for anti-proliferative activity as described above.

The subject of experiment [3] is HCT-116 human colon cancer cells. As to the kind of experiment: MTT Cell Proliferation Assay. Format: cell-based. To be noted: 72 hours, read-out: Percent of Control HCT-116. As for the experimental part: as §3
The subject of experiment [4] is PC-3 human prostate cancer cells. The experiment is described as follows: MTT Cell Proliferation Assay. Format: cell-based. To be noted: 72 hours, read-out: Percent of Control PC-3. As for the experimental part:
as §3

Experiment [5] deals with MDA-MB-231 human breast cancer cells. The experiment is described as follows: MTT Cell Proliferation Assay. Format: cell-based. The conditions noted are these: 72 hours, read-out: Percent of Control MDA-MB-231. As for the experimental part:
as §3

A value given as a limit tells only on which side of the number the result lay.

T1 sequence (O00763 149-2458 limits assumed): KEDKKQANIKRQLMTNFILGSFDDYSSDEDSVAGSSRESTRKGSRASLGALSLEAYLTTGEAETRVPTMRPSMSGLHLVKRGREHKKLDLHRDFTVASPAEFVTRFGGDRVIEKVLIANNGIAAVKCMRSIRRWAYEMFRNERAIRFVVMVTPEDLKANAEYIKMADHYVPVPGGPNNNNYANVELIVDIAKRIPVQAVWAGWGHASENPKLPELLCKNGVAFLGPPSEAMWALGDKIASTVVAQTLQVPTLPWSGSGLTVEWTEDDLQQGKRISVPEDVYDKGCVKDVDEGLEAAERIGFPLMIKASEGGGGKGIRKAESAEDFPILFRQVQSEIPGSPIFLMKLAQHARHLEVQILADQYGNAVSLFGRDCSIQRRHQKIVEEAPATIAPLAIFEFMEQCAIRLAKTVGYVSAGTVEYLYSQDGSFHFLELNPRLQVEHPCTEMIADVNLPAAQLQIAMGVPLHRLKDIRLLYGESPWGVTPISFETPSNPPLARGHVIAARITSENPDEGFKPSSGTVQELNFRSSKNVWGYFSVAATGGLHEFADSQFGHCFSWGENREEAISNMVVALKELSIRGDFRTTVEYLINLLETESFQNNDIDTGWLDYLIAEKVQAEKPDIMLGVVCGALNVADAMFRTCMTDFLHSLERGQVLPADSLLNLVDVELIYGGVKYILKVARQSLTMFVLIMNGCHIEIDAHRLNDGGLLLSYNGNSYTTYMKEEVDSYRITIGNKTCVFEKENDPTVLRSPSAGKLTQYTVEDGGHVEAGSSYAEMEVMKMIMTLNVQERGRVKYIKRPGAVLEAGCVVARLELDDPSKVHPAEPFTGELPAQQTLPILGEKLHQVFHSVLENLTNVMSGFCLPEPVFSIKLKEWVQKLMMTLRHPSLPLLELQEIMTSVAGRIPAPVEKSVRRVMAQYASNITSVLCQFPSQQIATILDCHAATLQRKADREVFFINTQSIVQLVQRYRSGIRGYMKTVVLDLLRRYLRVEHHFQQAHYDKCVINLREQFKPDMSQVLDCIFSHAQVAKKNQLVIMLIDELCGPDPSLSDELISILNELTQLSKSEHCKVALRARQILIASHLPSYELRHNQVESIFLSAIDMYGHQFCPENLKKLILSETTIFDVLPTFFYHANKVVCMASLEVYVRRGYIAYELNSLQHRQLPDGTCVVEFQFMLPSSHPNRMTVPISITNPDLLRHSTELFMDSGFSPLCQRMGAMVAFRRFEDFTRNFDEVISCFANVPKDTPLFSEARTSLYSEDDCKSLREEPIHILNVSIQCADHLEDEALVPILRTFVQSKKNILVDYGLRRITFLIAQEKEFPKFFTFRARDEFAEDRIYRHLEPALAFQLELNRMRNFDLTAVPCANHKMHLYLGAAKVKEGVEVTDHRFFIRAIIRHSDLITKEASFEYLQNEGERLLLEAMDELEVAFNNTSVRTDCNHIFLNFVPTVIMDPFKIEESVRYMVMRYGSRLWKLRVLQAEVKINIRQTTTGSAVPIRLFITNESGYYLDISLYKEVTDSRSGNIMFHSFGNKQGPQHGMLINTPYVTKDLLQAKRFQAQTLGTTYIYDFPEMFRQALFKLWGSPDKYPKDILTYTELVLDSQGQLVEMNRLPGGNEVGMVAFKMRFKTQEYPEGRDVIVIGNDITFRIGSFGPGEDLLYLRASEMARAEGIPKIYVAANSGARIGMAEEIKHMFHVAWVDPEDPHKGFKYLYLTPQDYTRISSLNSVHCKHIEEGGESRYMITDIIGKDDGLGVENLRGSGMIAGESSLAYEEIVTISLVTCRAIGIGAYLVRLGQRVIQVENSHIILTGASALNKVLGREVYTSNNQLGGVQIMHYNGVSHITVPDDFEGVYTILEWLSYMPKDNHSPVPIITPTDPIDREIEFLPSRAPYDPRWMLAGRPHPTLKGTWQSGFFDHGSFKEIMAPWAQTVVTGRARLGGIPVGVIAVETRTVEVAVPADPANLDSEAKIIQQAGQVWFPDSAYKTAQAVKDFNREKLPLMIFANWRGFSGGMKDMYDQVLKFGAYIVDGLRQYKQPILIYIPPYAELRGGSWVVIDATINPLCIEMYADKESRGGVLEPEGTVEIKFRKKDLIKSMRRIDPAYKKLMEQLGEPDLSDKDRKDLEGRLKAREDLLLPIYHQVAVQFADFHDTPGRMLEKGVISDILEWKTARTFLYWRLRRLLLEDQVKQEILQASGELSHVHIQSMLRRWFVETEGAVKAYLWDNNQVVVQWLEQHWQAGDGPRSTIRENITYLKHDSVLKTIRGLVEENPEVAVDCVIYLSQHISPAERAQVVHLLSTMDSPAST
Chain of uACC (Ustilago maydis ACC) (A0A0D1DYD5 entry or part of it): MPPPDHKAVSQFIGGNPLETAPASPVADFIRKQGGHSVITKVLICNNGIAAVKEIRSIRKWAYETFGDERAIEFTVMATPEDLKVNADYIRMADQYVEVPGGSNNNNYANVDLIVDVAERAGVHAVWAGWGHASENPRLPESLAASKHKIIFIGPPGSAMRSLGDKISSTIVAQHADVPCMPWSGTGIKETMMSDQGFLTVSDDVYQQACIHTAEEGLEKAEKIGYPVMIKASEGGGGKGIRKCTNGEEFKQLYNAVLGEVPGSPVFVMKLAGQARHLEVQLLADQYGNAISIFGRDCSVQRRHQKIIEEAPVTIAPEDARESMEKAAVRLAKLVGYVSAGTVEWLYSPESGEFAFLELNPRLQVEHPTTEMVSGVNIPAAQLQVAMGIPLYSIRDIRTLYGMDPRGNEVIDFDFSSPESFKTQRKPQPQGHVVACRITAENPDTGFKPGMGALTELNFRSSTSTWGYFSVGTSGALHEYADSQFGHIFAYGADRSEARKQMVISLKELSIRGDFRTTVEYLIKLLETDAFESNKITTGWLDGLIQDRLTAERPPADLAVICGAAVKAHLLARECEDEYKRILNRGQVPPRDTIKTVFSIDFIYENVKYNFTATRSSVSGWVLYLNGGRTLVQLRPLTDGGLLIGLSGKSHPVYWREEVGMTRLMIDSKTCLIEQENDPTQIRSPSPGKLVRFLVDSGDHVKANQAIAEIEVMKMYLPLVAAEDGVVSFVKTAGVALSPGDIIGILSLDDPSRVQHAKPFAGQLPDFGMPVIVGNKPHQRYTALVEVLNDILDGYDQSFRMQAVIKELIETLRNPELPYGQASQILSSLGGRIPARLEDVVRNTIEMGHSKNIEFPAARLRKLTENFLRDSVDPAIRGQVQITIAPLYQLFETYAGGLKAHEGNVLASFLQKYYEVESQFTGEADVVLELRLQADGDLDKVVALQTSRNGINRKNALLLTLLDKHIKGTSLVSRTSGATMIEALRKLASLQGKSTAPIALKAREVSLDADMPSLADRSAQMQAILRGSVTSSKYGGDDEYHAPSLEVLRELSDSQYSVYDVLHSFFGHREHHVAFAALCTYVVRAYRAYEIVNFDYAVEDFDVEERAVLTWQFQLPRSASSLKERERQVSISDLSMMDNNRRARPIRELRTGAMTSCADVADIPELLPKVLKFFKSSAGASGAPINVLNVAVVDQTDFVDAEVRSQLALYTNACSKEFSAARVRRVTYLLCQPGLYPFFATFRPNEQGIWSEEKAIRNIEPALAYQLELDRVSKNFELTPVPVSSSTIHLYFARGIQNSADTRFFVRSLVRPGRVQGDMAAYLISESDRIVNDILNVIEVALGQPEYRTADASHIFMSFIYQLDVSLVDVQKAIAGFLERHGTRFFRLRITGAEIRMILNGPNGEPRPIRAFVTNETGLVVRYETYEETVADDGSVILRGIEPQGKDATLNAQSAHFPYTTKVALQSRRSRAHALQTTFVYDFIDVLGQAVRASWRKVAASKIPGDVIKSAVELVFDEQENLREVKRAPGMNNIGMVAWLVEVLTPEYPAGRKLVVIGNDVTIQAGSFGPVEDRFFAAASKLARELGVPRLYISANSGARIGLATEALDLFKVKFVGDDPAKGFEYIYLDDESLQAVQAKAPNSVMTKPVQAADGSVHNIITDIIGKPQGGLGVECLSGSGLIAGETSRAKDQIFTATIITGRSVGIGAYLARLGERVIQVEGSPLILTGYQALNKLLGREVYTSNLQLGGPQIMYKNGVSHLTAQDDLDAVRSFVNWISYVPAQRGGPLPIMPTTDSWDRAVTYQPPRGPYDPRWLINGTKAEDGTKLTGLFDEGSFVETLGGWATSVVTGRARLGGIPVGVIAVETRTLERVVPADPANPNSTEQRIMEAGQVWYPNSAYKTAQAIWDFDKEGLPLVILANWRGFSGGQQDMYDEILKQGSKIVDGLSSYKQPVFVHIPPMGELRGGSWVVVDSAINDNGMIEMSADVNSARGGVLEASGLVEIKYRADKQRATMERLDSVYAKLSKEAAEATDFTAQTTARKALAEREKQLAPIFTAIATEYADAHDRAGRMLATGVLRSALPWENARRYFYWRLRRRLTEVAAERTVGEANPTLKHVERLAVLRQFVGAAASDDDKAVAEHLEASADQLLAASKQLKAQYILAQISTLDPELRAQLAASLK

What is called IC50 is the concentration at which inhibition is half-maximal. `COc1cc(C(=O)N2CCC3(CC2)NC(=O)c2cc(C)ccc2O3)cc2c(OC)cccc12` [Compound 145, 1′-[(4,8-Dimethoxynaphth-2-yl)carbonyl]-6-methylspiro[2H-1,3-benzoxazin-2,4′-piperidin]-4-(3H)-one]: the IC50 on hACC2 stood at 7 nM; on hACC1 it was 11 nM; in experiment [1], 5200 nM.

With `O=C1NC2(CCN(C(=O)c3sc4ccccc4c3Cl)CC2)Oc2ccc(Br)cc21` [Compound 1, 6-Bromo-1′-[(3-chlorobenzothien-2-yl)carbonyl]spiro[2H-1,3-benzoxazine-2,4′-piperidine]-4(3H)-one], the IC50 came out at 5400 nM at hACC2, 6000 nM on hACC1 and 160000 nM in experiment [1].

Consider `O=C1NC2(CCN(C(=O)c3cc4c(Cl)cccc4s3)CC2)Oc2ccc(Br)cc21` [Compound 5, 6-Bromo-1′-[(4-chlorobenzthien-2-yl)carbonyl]spiro[2H-1,3-benzoxazin-2,4′-piperidin]-4-(3H)-one], for which the IC50 at hACC2 is 2100 nM; on hACC1 it was 4500 nM; in experiment [1], over 135000 nM.

For `COC(=O)c1ccc2c(c1)C(=O)NC1(CCN(C(=O)c3cc(OC)c4cccc(OC)c4n3)CC1)O2` [Compound 201], the IC50 at hACC2 stood at 18 nM; at hACC1 it was 20 nM. For the same molecule, the activity at 3.3 µM in experiment [2] was 83.2%; in experiment [3] it was 59.8%; in experiment [4], 52.7%; in experiment [5] it was 82.5%. The activity at 10 µM in experiment [2] stood at 46.4%; in experiment [3], 46.8%; in experiment [4], 37.1%; in experiment [5], 61.5%.

As to `COc1cc(C(=O)N2CCC3(CC2)NC(=O)c2cc(Br)ccc2O3)cc2c(OC)cccc12` [Compound 30, 6-Bromo-1′-[(4,8-dimethoxynaphth-2-yl)carbonyl]spiro[2H-1,3-benzoxazin-2,4′-piperidin]-4-(3H)-one], the IC50 at hACC2 was found to be 17 nM; at hACC1, 16 nM; in experiment [1], 20000 nM.

Regarding `COc1ccc2c(c1)C(=O)NC1(CCN(C(=O)c3[nH]c4c(OC)cccc4c3C)CC1)O2` [Compound 151], the figures for the half-inhibitory concentration (IC50) on hACC2 and on hACC1 were 96 nM and 82 nM, respectively. Besides, the activity at 3.3 µM in experiment [2] was 92.7%; in experiment [3], 78.6%; in experiment [4], 86.1%; in experiment [5] it was 82.9%. The activity at 10 µM in experiment [2] was found to be 64%; in experiment [3], 61.8%; in experiment [4], 68.5%; in experiment [5], 50.1%.

As for `COc1ccc(-c2cc(C(=O)N3CCC4(CC3)NC(=O)c3ccccc3O4)n[nH]2)cc1` [Compound 87, 1′-[5-(4-Methoxyphenyl)-1(H)-pyrazol-3-ylcarbonyl]spiro[2H-1,3-benzoxazin-2,4′-piperidin]-4-(3H)-one], the values for the concentration for half-maximal inhibition (IC50) (at hACC2; at hACC1; in experiment [1]) were 12000 nM, 9700 nM and 220000 nM, respectively.

`CCOc1ccc2c(c1)C(=O)NC1(CCN(C(=O)c3cc(OC)c4cccc(OC)c4c3)CC1)O2` [Compound 146, 1′-[(4,8-Dimethoxynaphth-2-yl)carbonyl]-6-ethoxyspiro[2H-1,3-benzoxazin-2,4′-piperidin]-4-(3H)-one]: the IC50 at hACC2 amounted to 4 nM; at hACC1 it was 5 nM; in experiment [1], 3000 nM.

`COc1ccc2c(c1)C(=O)NC1(CCN(C(=O)c3cc(OC)c4cccc(OC)c4n3)CC1)N2` [Compound 188]: the 50% inhibitory concentration (IC50) on hACC1 is 260 nM. Moreover, the activity at 3.3 µM was 94.8% in experiment [2], 90.3% in experiment [3], 62.6% in experiment [4] and 70.3% in experiment [5]. Further, the activity at 10 µM in experiment [2] was 51.4%; in experiment [3], 68.2%; in experiment [4] it was 19%; in experiment [5], 28.7%.

On to `COc1ccc2c(c1)C(=O)NC1(CCN(C(=O)c3cc(OC)c4cccc(OC)c4c3)CC1)O2` [Compound 152, 1′-[(4,8-Dimethoxynaphth-2-yl)carbonyl]-6-methoxyspiro[2H-1-1,3-benzoxazin-2,4′-piperidin]-4-(3H)-one], for which the results for the IC50 on hACC2 and at hACC1 were 3 nM and 4 nM, respectively. Besides, the activity at 3.3 µM came to 84.1% in experiment [2], 53.3% in experiment [3], 88% in experiment [4] and 57% in experiment [5]. Besides, the activity at 10 µM worked out at 56.9% in experiment [2], 42% in experiment [3] and 25.7% in experiment [5].

For the molecule `COc1ccc2cc3c(cc2c1)C(=O)NC1(CCN(C(=O)c2cc(OC)c4cccc(OC)c4n2)CC1)O3` [Compound 164], the IC50 at hACC2 and at hACC1 was 4 nM in each case. In addition, the activity at 3.3 µM in experiment [2] turned out to be 73.1%; in experiment [3], 54%; in experiment [4] it was 68%; in experiment [5], 47.6%. Besides, the activity at 10 µM turned out to be 46% in experiment [2], 43.5% in experiment [3] and 13.9% in experiment [5].

Consider `COc1ccc(OC)c2[nH]c(C(=O)N3CCC4(CC3)NC(=O)c3cc(OC(C)C)ccc3O4)cc12` [Compound 184], for which the concentration for half-maximal inhibition (IC50) on hACC2 worked out at 400 nM; at hACC1, 480 nM. Besides, the activity at 3.3 µM in experiment [2] was found to be 90%; in experiment [3], 65.5%; in experiment [4], 81.3%; in experiment [5], 75.8%. Besides, the activity at 10 µM came out at 44.7% in experiment [2], 40.4% in experiment [3], 64.6% in experiment [4] and 46.1% in experiment [5].

`COc1cccc2c(C)c(C(=O)N3CCC4(CC3)NC(=O)c3cc(OC(C)C)ccc3O4)[nH]c12` [Compound 180]: the IC50 on hACC2 worked out at 42 nM; at hACC1 it was 36 nM. The activity at 3.3 µM in experiment [2] was determined as 79.4%; in experiment [3], 52.6%; in experiment [4], 79.5%; in experiment [5], 68.7%. In addition, the activity at 10 µM in experiment [2] was 21.2%; in experiment [3], 29.8%; in experiment [4], 56.8%; in experiment [5] it was 9.3%.
